# Measured values published in ChEMBL document CHEMBL4257461, “Schizophrenia: synthetic strategies and recent advances in drug design” (Medchemcomm, 2018).
# Legend:
# [1] = Tmax in human at 9.75 mg, im administered as single dose; type: ADME, organism-based; conditions: in vivo
# [2] = Oral bioavailability in human; type: ADME, organism-based; conditions: in vivo
# [3] = Drug absorption in po dosed human; type: ADME, organism-based; conditions: in vivo, read-out: Drug absorption
# [4] = Half life in po dosed human plasma; type: ADME, organism-based
# [5] = Half life in iv dosed human plasma; type: ADME, organism-based
# [6] = Half life in im dosed human plasma; type: ADME, organism-based
# [7] = Drug excretion in po dosed human; conditions: in vivo
# [8] = Terminal half life in po dosed human; conditions: in vivo
compound,measurement,setting,value
O=C1CCc2ccc(OCCCCN3CCN(c4cccc(Cl)c4Cl)CC3)cc2N1 [ARIPIPRAZOLE],Tmax,[1],3 h
CN1CCN(C2=Nc3cc(Cl)ccc3Nc3ccccc32)CC1 [CLOZAPINE],bioavailability,[2],50 to 60%
same,Fa,[3],90 to 95%
O=C(CCCN1CCC(O)(c2ccc(Cl)cc2)CC1)c1ccc(F)cc1 [HALOPERIDOL],half-life,[4],1440 min
same,half-life,[5],840 min
same,half-life,[6],1260 min
O=C1[C@@H]2[C@H]3CC[C@H](C3)[C@@H]2C(=O)N1C[C@@H]1CCCC[C@H]1CN1CCN(c2nsc3ccccc23)CC1 [LURASIDONE],Fa,[3],9 to 19%
OCCOCCN1CCN(C2=Nc3ccccc3Sc3ccccc32)CC1 [QUETIAPINE],dose excreted,[7],< 1%
same,half-life,[8],360 min
